Data as given in ChEMBL document CHEMBL5674880 (PLoS One, 2018).
pIC50: −log10 of the molar value.

Molecular target: Histone-lysine N-methyltransferase SMYD3 (Homo sapiens, UniProt Q9H7B4)
Test: Inhibition of SMYD3 (unknown origin)

Histone-lysine N-methyltransferase SMYD3, sequence (Q9H7B4 whole entry): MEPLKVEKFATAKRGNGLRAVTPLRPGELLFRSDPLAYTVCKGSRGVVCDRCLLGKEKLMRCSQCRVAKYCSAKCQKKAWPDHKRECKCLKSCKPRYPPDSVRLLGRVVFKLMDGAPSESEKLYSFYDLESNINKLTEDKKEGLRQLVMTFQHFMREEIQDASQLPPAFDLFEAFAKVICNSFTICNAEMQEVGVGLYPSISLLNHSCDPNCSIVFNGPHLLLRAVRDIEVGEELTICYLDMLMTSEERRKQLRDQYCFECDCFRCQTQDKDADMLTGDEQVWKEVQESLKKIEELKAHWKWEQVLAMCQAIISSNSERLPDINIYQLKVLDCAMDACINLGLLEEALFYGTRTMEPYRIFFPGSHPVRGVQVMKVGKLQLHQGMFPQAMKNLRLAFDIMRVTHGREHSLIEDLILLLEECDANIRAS

Compound `O=C1Cc2cc(C(=O)N[C@H]3C[C@H]4CC[C@@H](C3)N4S(=O)(=O)CC3CCN(CCCC(F)(F)F)CC3)c(Cl)cc2N1` has a pIC50 of 8.30.
